Where “and” joins values, the source holds several entries; their conditions need not be identical. Equal entries are not always repeated. Entries after “also recorded” stand apart in the source; their conditions may differ.
Tests used:
[1] = tested on: Akt/mTORC1 pathway; test: Western blot / phospho-4E-BP analysis of liver for Akt/mTORC1 pathway activation; assay type: in vivo, mice
Experimental: (§1) Animal studies and tissue preparation. All animal experiments were performed in accordance with the guidelines of the Institutional Committee for the Use of Animals for Research (IACUC). Mice aged 18 months or older (‘old’ mice) were either purchased from the National Institute of Aging and from Charles River Laboratories or maintained up to the required age in the Specific Pathogen Free (SPF) animal facility at our institution. Mice aged 10-12 months (‘aged’ mice) and 8-week-old ob/ob mice were purchased from Harlan Laboratories. The genetic background of all mice was c57 Black. Pregnancy in ob/ob mice was induced as described previously (Malik et al., 2001). […] Progesterone levels were measured to verify pseudopregnancy induction (Shiotani et al., 1993). […] For measurement of serum prothrombin time, sodium citrate (0.105 M) was added immediately to the blood sample at a ratio of 1:10 (v/v), and values were recorded with a Beckman Coulter ACL 9000 Coagulation Analyzer according to the manufacturer's instructions. […]
Western blot analysis. […] Tissue lysates containing 100 μg protein were separated by 12% SDS-PAGE, and assessed by Western blot analysis by means of sequential probing with the relevant primary antibody and a relevant anti-IgG conjugated to horseradish peroxidase (Jackson ImmunoResearch).

[2] = tested on: hepatocytes; test: Hepatocyte cell size (E-cadherin staining) after partial hepatectomy; assay type: in vivo, mice
Experimental: as §1
Measurement of cell size. […] The numbers of pixels in 100-300 individual hepatocytes for each mouse were scored with ImageJ (NIH) by an observer who was blinded to the treatment group. […] Mean hepatocyte volume was calculated by dividing the hepatocyte volume by the number of hepatocytes. […]

[3] = tested on: old mice after partial hepatectomy; test: Post-hepatectomy blood coagulation (prothrombin time) and locomotor activity tests; assay type: in vivo; conditions: female mice aged 18-24 mo, compared with nontreated old mice
Experimental: (§2) Animal studies and tissue preparation. All animal experiments were performed in accordance with the guidelines of the Institutional Committee for the Use of Animals for Research (IACUC). Mice aged 18 months or older (‘old’ mice) were either purchased from the National Institute of Aging and from Charles River Laboratories or maintained up to the required age in the Specific Pathogen Free (SPF) animal facility at our institution. Mice aged 10-12 months (‘aged’ mice) and 8-week-old ob/ob mice were purchased from Harlan Laboratories. The genetic background of all mice was c57 Black. Pregnancy in ob/ob mice was induced as described previously (Malik et al., 2001). Pseudopregnancy was induced by mating females with vasectomized males and observing for the presence of vaginal plugs. Progesterone levels were measured to verify pseudopregnancy induction (Shiotani et al., 1993). […] For measurement of serum prothrombin time, sodium citrate (0.105 M) was added immediately to the blood sample at a ratio of 1:10 (v/v), and values were recorded with a Beckman Coulter ACL 9000 Coagulation Analyzer according to the manufacturer's instructions. […]
Locomotor activity. This was monitored using a photocell cage, 43.2 cm×43.2 cm (Med Associates), with 16 beam I/R arrays located along each wall of the box. […]

[4] = tested on: hepatocytes; test: BrdU incorporation into hepatocytes (proliferation index) after two-thirds partial hepatectomy; assay type: in vivo, mice
Experimental: Animal studies and tissue preparation. All animal experiments were performed in accordance with the guidelines of the Institutional Committee for the Use of Animals for Research (IACUC). Mice aged 18 months or older (‘old’ mice) were either purchased from the National Institute of Aging and from Charles River Laboratories or maintained up to the required age in the Specific Pathogen Free (SPF) animal facility at our institution. Mice aged 10-12 months (‘aged’ mice) and 8-week-old ob/ob mice were purchased from Harlan Laboratories. The genetic background of all mice was c57 Black. Pregnancy in ob/ob mice was induced as described previously (Malik et al., 2001). Pseudopregnancy was induced by mating females with vasectomized males and observing for the presence of vaginal plugs. Progesterone levels were measured to verify pseudopregnancy induction (Shiotani et al., 1993). For rapamycin treatment, mice were injected intraperitoneally (i.p.) for 3 consecutive days with rapamycin (0.2 mg/kg body weight diluted in DMSO; LC Laboratories), starting 3 h before the hepatectomy. For PTEN inhibition, bpV(phen) (3.3 μg/g body weight diluted in normal saline; Alexis Biochemicals) was administered i.p. on the day before hepatectomy and once a day for 3 days thereafter. BrdU (100 μl/10 g body weight; Amersham) was injected i.p. at the indicated times before the mice were killed. When indicated, BrdU (#B5002; Sigma) was added to the drinking water (0.8 mg/ml). The mice were allowed to drink ad libitum. For all experiments mice were killed by cervical dislocation. In some cases, a liver sample was removed and ‘snap-frozen’ for protein and RNA analyses. Livers were removed, weighed, photographed, and fixed in formalin overnight, and the next day the entire liver was embedded in paraffin. For measurement of serum prothrombin time, sodium citrate (0.105 M) was added immediately to the blood sample at a ratio of 1:10 (v/v), and values were recorded with a Beckman Coulter ACL 9000 Coagulation Analyzer according to the manufacturer's instructions. For ⅔ partial hepatectomy, virgin or pregnant mice (16-18 days post-coitum unless otherwise specified) were anesthetized, and the median and left lateral lobes of the liver were removed, as described (Ben Moshe et al., 2007).
Proliferation index. The percentage of BrdU-positive hepatocyte nuclei was assessed using the Kisight module of the Ariol SL 50® automated scanning microscope and image analysis system, according to the manufacturer's instructions. The same gating parameters were used for all sections. Ten fields in each liver were scored and the average percentage was calculated.
Immunohistochemistry and immunofluorescence. […]

[5] = tested on: old mice after partial hepatectomy; test: Post-hepatectomy mortality in old mice; assay type: in vivo; conditions: female mice aged 18-24 mo, control four out of nine, P=0.014
Experimental: as §2, with “1993). For rapamycin treatment, mice were injected intraperitoneally (i.p.) for 3 consecutive days with rapamycin (0.2 mg/kg body weight diluted in DMSO; LC Laboratories), starting 3 h before the hepatectomy.” for “1993).”

[6] = tested on: hepatocytes; conditions: previous studies; cited from earlier work
[7] = tested on: H35 cells (rat hepatoma cell line); test: Western blot of H35 cells treated with leptin, IL6 or both; assay type: cell-based; conditions: starvation for 16 h then treated
Experimental: Western blot analyses of hepatoma rat cells, that were under starvation for 16 h and then treated with: bpV(phen), leptin, IL-6 and combination of IL-6 and Leptin.
Leptin is an adipokine of the IL6 family and its receptor signals through both the JAK/STAT and the Akt/mTORC1 pathways. Its origin is placental in humans, maternal in mice, and in late pregnancy it is increased by up to 25-fold. To test whether pregnancy-induced leptin accumulation contributes to the proliferation-to-hypertrophy switch in pregnancy we used ob/ob mice, which carry a loss-of-function mutation in leptin. Indeed, hepatocyte proliferation was not decreased in pregnant versus non-pregnant ob/ob mice (FIG. 13A). Moreover, liver regeneration in pregnant ob/ob mice was not accompanied by hepatocyte hypertrophy (FIGS. 13B-D). These findings confirmed that maternal leptin is necessary for the pregnancy-induced module switch. Furthermore, the phosphorylation state of components of the Akt/mTORC1 pathway was not increased in pregnant relative to nonpregnant mice (FIG. 13E FIG. 4e). […] Cells were harvested and protein extracts were analyzed by Western blot analysis. […] To test whether leptin is sufficient to activate the hypertrophy module, we administered leptin or vehicle to nonpregnant female mice prior to and after hepatectomy (FIG. 15A) and assessed liver growth and proliferation.

[8] = tested on: liver regeneration; test: Prolactin administration to nonpregnant mice, liver regeneration; assay type: in vivo; conditions: data not shown
Description: In searching for the upstream signals mediating the pregnancy-induced switch, we identified four candidate hormones that are elevated in pregnancy and can activate the Akt/mTORC1 pathway: growth hormone (and its variants), prolactin, leptin and estrogen.

[9] = young nonpregnant mice treated with bpV(phen), after partial hepatectomy

O.O.O.OO.OO.[K+].[OH-].[V].c1cnc2c(c1)ccc1cccnc12 [bpV(phen), bisperoxovanadium 1,10-phenanthroline]
activation of Akt/mTORC1 pathway (phosphorylated Akt and 4E-BP1, Western blot) ([1]; liver extracts of young mice treated with bpV(phen)): activates the Akt/mTORC1 pathway | growth in the mean cross-sectional area [2, 9]: 115% | recovery from partial hepatectomy (blood coagulation and locomotor activity) [3]: significant improvement in recovery from partial hepatectomy | proliferation index [4, 9]: low proliferation index | BrdU-labeled hepatocytes ([4]; young nonpregnant mice, 4 d after partial hepatectomy, continuous BrdU, bpV(phen) 3.3 μg/g i.p., untreated 92±1%): 8±2% | mortality rate [5]: zero out of nine

CO[C@H]1C[C@@H]2CC[C@@H](C)[C@@](O)(O2)C(=O)C(=O)N2CCCC[C@H]2C(=O)O[C@H]([C@H](C)C[C@@H]2CC[C@@H](O)[C@H](OC)C2)CC(=O)[C@H](C)/C=C(\C)[C@@H](O)[C@@H](OC)C(=O)[C@H](C)C[C@H](C)/C=C/C=C/C=C/1C [rapamycin]
cell size ([2]; aged pregnant mice, 2 d after partial hepatectomy, rapamycin-treated, vehicle 527±2): 422±1 μ^2 | hepatocyte proliferation rate (BrdU-labeled) ([4]; aged pregnant mice, 2 d after partial hepatectomy, rapamycin 0.2 mg/kg i.p. for 3 days, vehicle 2%±1%): 25±8% and 25%±8%

Estrogen
hepatocyte proliferation after partial hepatectomy [6]: increase hepatocyte proliferation after partial hepatectomy

growth hormone: hormone elevated in pregnancy; not tested by the applicant, literature result only
hepatocyte proliferation after partial hepatectomy [6]: increase hepatocyte proliferation after partial hepatectomy

B1: leptin: adipokine of the IL6 family; mouse leptin was injected in mice (protein, UniProt P41160 22-167, looked up)
Leptin: VPIQKVQDDTKTLIKTIVTRINDISHTQSVSAKQRVTGLDFIPGLHPILSLSKMDQTLAVYQQVLTSLPSQNVLQIANDLENLRDLLHLLAFSKSCSLPQTSGLQKPESLDGVLEASLYSTEVVALSRLQGSLQDILQQLDVSPEC
Akt pathway activation (phosphorylation of 4E-BP) ([1]; nonpregnant female mice, leptin S.C. 1 mg/kg, two days after partial hepatectomy): activating the Akt pathway | hepatocyte proliferation after partial hepatectomy [6]: attenuates hepatocyte proliferation after partial hepatectomy | hepatocyte proliferation (BrdU-positive cells) ([4]; nonpregnant female mice, leptin S.C. 1 mg/kg from two days before to two days after partial hepatectomy): marked reduction in hepatocyte proliferation | Akt pathway activation (phosphorylation of S6 kinase and 4E-BP) [7]: activates the Akt pathway; also recorded: phosphorylation of both S6 kinase and 4E-BP

B2: prolactin: hormone elevated in pregnancy that can activate the Akt/mTORC1 pathway (protein, UniProt P01236 29-227, looked up)
Prolactin: LPICPGGAARCQVTLRDLFDRAVVLSHYIHNLSSEMFSEFDKRYTHGRGFITKAINSCHTSSLATPEDKEQAQQMNQKDFLSLIVSILRSWNEPLYHLVTEVRGMQEAPEAILSKAVEIEEQTKRLLEGMELIVSQVHPETKENEIYPVWSGLPSLQMADEESRLSAYYNLLHCLRRDSHKIDNYLKLLKCRIIHNNNC
effect on liver regeneration [8]: no effect on liver regeneration

— patent publication US20130023469A1, “LEPTIN FOR USE IN INCREASING LIVER REGENERATION” (Hadasit Medical Research Services & Development Ltd., priority 2009, published 2013)
